Literature values in US10654893B2, “Self-assembling peptide compositions” (3-D MATRIX, LTD., priority 2014, dated 2020).

Conditions: cited from earlier work

SMILES	pKa
N[C@@H](CC(=O)O)C(=O)O [aspartic acid]	3.71
N[C@@H](CCC(=O)O)C(=O)O [glutamic acid]	4.15
